Reference: PubChem BioAssay AID2060626 (Molecular Pharmacology Branch, DTP, NCI, 2025)
Several values for one entry are separate records, joined by “and”; a condition that tells them apart may be missing. Identical values can stand only once.

Test system: 168753-222-R-J1-PDC complex spheroid viability
Test: Anticancer human tumor 168753-222-R-J1-PDC patient-derived bladder carcinoma cell line growth inhibition [CLK]
Conditions: for viability, T/C: stronger effect = lower value
From the text: A high-throughput screen of multi-cell type tumor spheroids was designed to identify active combinations of […] and targeted small molecules. Complex spheroids include a stromal component modeled by human endothelial cells (HUVEC) and fibroblasts modeled by human mesenchymal stem cells (MSCs). The concentration ranges selected for each drug and investigational agent were based upon clinically achievable concentrations if the clinical Cmax of the agent was known.
Compounds. The drugs and investigational agents: cirtuvivint (SM08502; NSC835563), CC-671 (NSC850746), vemurafenib (NSC761431), tapotoclax (NSC804041), sotorasib (NSC818433), adagrasib (NSC831453), MRTX-1133 (NSC836407), BAY2416964 (NSC825713), copanlisib (NSC816437), inavolisib (NSC800729), abemaciclib (NSC768073), osimertinib (NSC779217), entinostat (NSC756642), eltanexor (KPT-8602, NSC794443), venetoclax (NSC766270), ceralasertib (NSC777638), bortezomib (NSC756655), olaparib (NSC753686), talazoparib (NSC767125), alisertib (NSC759677), peposertib (NSC802822), gemcitabine (NSC613327), 5-fluorouracil (NSC19893), SN-38 (NSC673596), oxaliplatin (NSC266046), paclitaxel (NSC125973), and doxorubicin (NSC123127), were obtained from the National Cancer Institute (NCI) Developmental Therapeutics Program Chemical Repository. The FDA-approved anticancer drug set is available from the Developmental Therapeutics Program at https://dtp.cancer.gov/organization/dscb/obtaining/available plates.htm. […] The stock solutions were prepared in dimethyl sulfoxide (DMSO, Sigma-Aldrich, St. Louis, MO, cat. D2650), except for the platinum complexes which were prepared in saline (Quality Biological, Gaithersburg, MD, cat. 114-055-101), at 800-fold the tested concentration and stored at -70 degrees C prior to their use. All drugs and investigational agents were tested over a range starting from a high concentration at or near the clinical Cmax and decreasing in half-log increments. If the clinical Cmax for an agent had not been determined, the highest concentration tested was 10 microM.
Cell Culture. All cells were maintained in an incubator at 37 degrees C and 5% CO2 with 95% humidity. The PDC lines were cultured according to standard operating procedures established by the NCI PDMR. Briefly, all PDCs were thawed and cultured in Matrigel-coated flasks prepared with a working solution of 1X Ham's F-12 nutrient mix, without supplementation (Invitrogen, Waltham, MA, cat. 11765054), 100 U/mL penicillin-streptomycin (Invitrogen, cat. 15140122), and 2.5% Matrigel (Corning Inc., Corning, NY, cat. 354248) for the first three passages. The 947758-054-R-J2-PDC line was cultured in 6B/Colon 1A media, which includes advanced DMEM/F-12 (Thermo Fisher Scientific, cat. 12634028), 10 mM HEPES (Thermo Fisher Scientific, cat. 15630080), 1X GlutaMAX supplement (Thermo Fisher Scientific, cat. 35050061), 0.1 mg/mL primocin (InvivoGen, cat. ant-pm-2), 10% defined fetal bovine serum, heat inactivated (HyClone Laboratories Inc., cat. SH30070.03HI), 1.25 mM N-Acetyl-L-cysteine (Sigma-Aldrich, cat. A9165), 10 mM nicotinamide (Sigma-Aldrich, cat. N0636), 1X B-27 supplement (Thermo Fisher Scientific, cat. 17504044), 1X N-2 supplement (Thermo Fisher Scientific, cat. 17502048), and 10 microM Y-27632 dihydrochloride (Tocris Bioscience, cat. 1254). The 876862-298-R-J1-PDC was cultured in 6E media, which includes all 6B/Colon 1A media components plus 50% L-WRN conditioned media (ATCC, cat. CRL-3276), 50 ng/mL recombinant human EGF recombinant protein (hEGF; Thermo Fisher Scientific, cat. PHG0311), 10 ng/mL recombinant human fibroblast growth factor 10 (hGFG-10; PeproTech, cat. 100-26), 1 ng/mL recombinant human fibroblast growth factor 2 (hFGF-2; PeproTech, cat. 100-18B), and 1 µM prostaglandin E2 (PGE2; Tocris, cat. 2296). The 227483-062-R1-J1-PDC line was cultured in Panc media, containing all 6E components except hFGF-2, with the addition of 500 nM SB-431542 (Selleckchem, cat. S1067) and 10 nM gastrin (Tocris, cat. 3006). […]
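Further: viability measured after seven days of drug exposure.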
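Wherever viability, T/C is given: luminescence signal used as surrogate for viable cell amount; 100% = DMSO vehicle control wells.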

**Q.** How did the IC50 (curve of first compound, second compound 0.0316 µM) turn out when Nc1ccccc1NC(=O)c1ccc(CNC(=O)OCc2cccnc2)cc1 + CN1CCN(c2cc(C(=O)Nc3cc4cc(-c5cnn(C)c5)ccc4cn3)ccn2)CC1 was run?
**A.** 554 nM

**Q.** And the IC50 (curve of first compound, second compound 0.1 µM)?
**A.** < 31.6 nM

**Q.** And the IC50 (curve of first compound, second compound 0.316 µM)?
**A.** < 31.6 nM

**Q.** And the IC50 (curve of first compound, second compound 1 µM)?
**A.** < 31.6 nM

**Q.** What about the IC50 (curve of first compound, second compound 3.16 µM) of the same compound?
**A.** < 31.6 nM

**Q.** And the IC50 (curve of first compound, second compound 10 µM)?
**A.** < 31.6 nM

**Q.** What about the viability, T/C (second compound 0.0316 µM, first compound 0.0316 µM) of the same compound?
**A.** 96.5%

**Q.** What about the viability, T/C (second compound 0.0316 µM, first compound 0.1 µM) of the same compound?
**A.** 58.7%

**Q.** And the viability, T/C (second compound 0.0316 µM, first compound 0.316 µM)?
**A.** 54.6%

**Q.** And the viability, T/C (second compound 0.0316 µM, first compound 1 µM)?
**A.** 54%

**Q.** What about the viability, T/C (second compound 0.0316 µM, first compound 3.16 µM) of the same compound?
**A.** 24.3%

**Q.** What about the viability, T/C (second compound 0.0316 µM, first compound 10 µM) of the same compound?
**A.** 7.33%

**Q.** And the viability, T/C (second compound 0.1 µM, first compound 0.0316 µM)?
**A.** 50%

**Q.** What about the viability, T/C (second compound 0.1 µM, first compound 0.1 µM) of the same compound?
**A.** 41.3%

**Q.** And the viability, T/C (second compound 0.1 µM, first compound 0.316 µM)?
**A.** 38.2%

**Q.** And the viability, T/C (second compound 0.1 µM, first compound 1 µM)?
**A.** 43.9%

**Q.** What about the viability, T/C (second compound 0.1 µM, first compound 3.16 µM) of the same compound?
**A.** 22.6%

**Q.** And the viability, T/C (second compound 0.1 µM, first compound 10 µM)?
**A.** 0.13%

**Q.** What about the viability, T/C (second compound 0.316 µM, first compound 0.0316 µM) of the same compound?
**A.** 9.09%

**Q.** And the viability, T/C (second compound 0.316 µM, first compound 0.1 µM)?
**A.** 8.55%

**Q.** What about the viability, T/C (second compound 0.316 µM, first compound 0.316 µM) of the same compound?
**A.** 7.31%

**Q.** What about the viability, T/C (second compound 0.316 µM, first compound 1 µM) of the same compound?
**A.** 7.09%

**Q.** What about the viability, T/C (second compound 0.316 µM, first compound 3.16 µM) of the same compound?
**A.** 0.22%

**Q.** And the viability, T/C (second compound 0.316 µM, first compound 10 µM)?
**A.** 0.07%

**Q.** What about the viability, T/C (second compound 1 µM, first compound 0.0316 µM) of the same compound?
**A.** 0.13%

**Q.** What about the viability, T/C (second compound 1 µM, first compound 0.1 µM) of the same compound?
**A.** 0.23%

**Q.** What about the viability, T/C (second compound 1 µM, first compound 0.316 µM) of the same compound?
**A.** 0.08%

**Q.** What about the viability, T/C (second compound 1 µM, first compound 1 µM) of the same compound?
**A.** 0.05%

**Q.** What about the viability, T/C (second compound 1 µM, first compound 3.16 µM) of the same compound?
**A.** 0.16%

**Q.** And the viability, T/C (second compound 1 µM, first compound 10 µM)?
**A.** 0.89%

**Q.** What about the viability, T/C (second compound 3.16 µM, first compound 0.0316 µM) of the same compound?
**A.** 0.79%

**Q.** And the viability, T/C (second compound 3.16 µM, first compound 0.1 µM)?
**A.** 0.08%

**Q.** What about the viability, T/C (second compound 3.16 µM, first compound 0.316 µM) of the same compound?
**A.** 0.09%

**Q.** And the viability, T/C (second compound 3.16 µM, first compound 1 µM)?
**A.** 0.06%

**Q.** What about the viability, T/C (second compound 3.16 µM, first compound 3.16 µM) of the same compound?
**A.** 0.71%

**Q.** And the viability, T/C (second compound 3.16 µM, first compound 10 µM)?
**A.** 0.95%

**Q.** What about the viability, T/C (second compound 10 µM, first compound 0.0316 µM) of the same compound?
**A.** 0.06%

**Q.** And the viability, T/C (second compound 10 µM, first compound 0.1 µM)?
**A.** 0.23%

**Q.** What about the viability, T/C (second compound 10 µM, first compound 0.316 µM) of the same compound?
**A.** 0.32%

**Q.** And the viability, T/C (second compound 10 µM, first compound 1 µM)?
**A.** 0.1%

**Q.** And the viability, T/C (second compound 10 µM, first compound 3.16 µM)?
**A.** 0.24%

**Q.** What about the viability, T/C (second compound 10 µM, first compound 10 µM) of the same compound?
**A.** 1.08%

**Q.** Which viability, T/C (compound 0.0316 µM) does the source give for CC(Nc1ccc2c(c1)OCCn1cc(N3C(=O)OCC3C(F)F)nc1-2)C(N)=O (centres undefined) here?
**A.** 86.9% and 78.6%

**Q.** And the viability, T/C (compound 0.1 µM)?
**A.** 45.8% and 69.2%

**Q.** And the viability, T/C (compound 0.316 µM)?
**A.** 20.7% and 22.8%

**Q.** And the viability, T/C (compound 1 µM)?
**A.** 13.3% and 18.8%

**Q.** What about the viability, T/C (compound 3.16 µM) of the same compound?
**A.** 10.3% and 13.1%

**Q.** And the viability, T/C (compound 10 µM)?
**A.** 11% and 14.8%

**Q.** What about the IC50 (curve of compound) of the same compound?
**A.** 88.9 nM and 161 nM
